The record followed here is ChEMBL document CHEMBL1148851, “Chemoenzymatic synthesis and in vitro studies on the hydrolysis of antimicrobial monoglycosyl diglycerides by pancreatic lipase” (2007).

Usually MIC stands for the lowest concentration that inhibits growth of the organism.

≈ marks a conversion by molar mass, not a printed value.

The first test concerns Mycobacterium tuberculosis. The test is described as follows: Antibacterial activity against Mycobacterium tuberculosis H190 by dilution method. Type of test: functional.
Settings: not given
`CC/C=C\C/C=C\C/C=C\CCCCCCCC(=O)OC(COC(=O)CCCCCCCCC)CO[C@@H]1O[C@H](CO)[C@H](O)[C@H](O)[C@H]1O` (stereo partly drawn): the MIC is more than 128 µg/mL.

The molecule `CC/C=C\C/C=C\C/C=C\CCCCCCCC(=O)OC(COC(=O)CCCCCCCCC)CO[C@@H]1O[C@H](CO)[C@@H](O)[C@H](O)[C@H]1O` (stereo partly drawn) yielded a minimal inhibitory concentration (MIC) of more than 128 µg/mL.

The next test has as its system Candida albicans. In words: Antifungal activity against Candida albicans by dilution method.
Settings: not given
It counts as functional.
`CC/C=C\C/C=C\C/C=C\CCCCCCCC(=O)OC(COC(=O)CCCCCCCCC)CO[C@@H]1O[C@H](CO)[C@H](O)[C@H](O)[C@H]1O` (stereo partly drawn) showed an MIC of more than 128 µg/mL.

Molecule `CC/C=C\C/C=C\C/C=C\CCCCCCCC(=O)OC(COC(=O)CCCCCCCCC)CO[C@@H]1O[C@H](CO)[C@@H](O)[C@H](O)[C@H]1O` (stereo partly drawn) showed an MIC of more than 128 µg/mL.

Another test deals with Staphylococcus aureus. In words: Antibacterial activity against Staphylococcus aureus SA87 isolate. It counts as functional. The note with it: Staphylococcus aureus; read-out: MIC.
For `CC/C=C\C/C=C\C/C=C\CCCCCCCC(=O)OC(COC(=O)CCCCCCCCC)CO[C@@H]1O[C@H](CO)[C@H](O)[C@H](O)[C@H]1O` (stereo partly drawn), the MIC stood at 32 µg/mL (≈ 47.8 µM).

In the case of `CC/C=C\C/C=C\C/C=C\CCCCCCCC(=O)OC(COC(=O)CCCCCCCCC)CO[C@@H]1O[C@H](CO)[C@@H](O)[C@H](O)[C@H]1O` (stereo partly drawn), the MIC amounted to 32 µg/mL (≈ 47.8 µM).

A further test has as its system Kluyveromyces marxianus. In words: Antifungal activity against Candida pseudotropicalis by dilution method. It counts as functional.
Settings: not given
`CC/C=C\C/C=C\C/C=C\CCCCCCCC(=O)OC(COC(=O)CCCCCCCCC)CO[C@@H]1O[C@H](CO)[C@H](O)[C@H](O)[C@H]1O` (stereo partly drawn) came in with an MIC of more than 128 µg/mL.

The molecule `CC/C=C\C/C=C\C/C=C\CCCCCCCC(=O)OC(COC(=O)CCCCCCCCC)CO[C@@H]1O[C@H](CO)[C@@H](O)[C@H](O)[C@H]1O` (stereo partly drawn) gave a minimum inhibitory concentration (MIC) of more than 128 µg/mL.

The test system of a further test is Staphylococcus aureus. In words: Antibacterial activity against Staphylococcus aureus ATCC 105487. Type of test: functional.
Settings: not given
`CC/C=C\C/C=C\C/C=C\CCCCCCCC(=O)OC(COC(=O)CCCCCCCCC)CO[C@@H]1O[C@H](CO)[C@H](O)[C@H](O)[C@H]1O` (stereo partly drawn) yielded an MIC of more than 128 µg/mL.

The molecule `CC/C=C\C/C=C\C/C=C\CCCCCCCC(=O)OC(COC(=O)CCCCCCCCC)CO[C@@H]1O[C@H](CO)[C@@H](O)[C@H](O)[C@H]1O` (stereo partly drawn) displayed an MIC of more than 128 µg/mL.

In a further test the test system is Staphylococcus aureus. The test is described as follows: Antibacterial activity against Staphylococcus aureus ATCC 25923. Type of test: functional.
Settings: not given
Regarding `CC/C=C\C/C=C\C/C=C\CCCCCCCC(=O)OC(COC(=O)CCCCCCCCC)CO[C@@H]1O[C@H](CO)[C@H](O)[C@H](O)[C@H]1O` (stereo partly drawn), the MIC is more than 128 µg/mL.

In turn, `CC/C=C\C/C=C\C/C=C\CCCCCCCC(=O)OC(COC(=O)CCCCCCCCC)CO[C@@H]1O[C@H](CO)[C@@H](O)[C@H](O)[C@H]1O` (stereo partly drawn) registered an MIC of more than 128 µg/mL.

For another test, the system named is Mycobacterium tuberculosis. The test is described as follows: Antibacterial activity against Mycobacterium tuberculosis H37Rv by dilution method. Type of test: functional. Particulars: Mycobacterium tuberculosis, H37Rv; read-out: MIC.
For the molecule `CC/C=C\C/C=C\C/C=C\CCCCCCCC(=O)OC(COC(=O)CCCCCCCCC)CO[C@@H]1O[C@H](CO)[C@H](O)[C@H](O)[C@H]1O` (stereo partly drawn), the MIC was more than 128 µg/mL.

For `CC/C=C\C/C=C\C/C=C\CCCCCCCC(=O)OC(COC(=O)CCCCCCCCC)CO[C@@H]1O[C@H](CO)[C@@H](O)[C@H](O)[C@H]1O` (stereo partly drawn), the minimum inhibitory concentration (MIC) is more than 128 µg/mL.

In another test the test system is Enterococcus faecalis. The test is described as follows: Antibacterial activity against Enterococcus faecalis ATCC 29212. It counts as functional.
Settings: not given
For `CC/C=C\C/C=C\C/C=C\CCCCCCCC(=O)OC(COC(=O)CCCCCCCCC)CO[C@@H]1O[C@H](CO)[C@H](O)[C@H](O)[C@H]1O` (stereo partly drawn), the MIC was more than 128 µg/mL.

Molecule `CC/C=C\C/C=C\C/C=C\CCCCCCCC(=O)OC(COC(=O)CCCCCCCCC)CO[C@@H]1O[C@H](CO)[C@@H](O)[C@H](O)[C@H]1O` (stereo partly drawn) returned an MIC of more than 128 µg/mL.

Another test deals with Pseudomonas aeruginosa. The test is described as follows: Antibacterial activity against Pseudomonas aeruginosa ATCC 27753. It counts as functional.
Settings: not given
`CC/C=C\C/C=C\C/C=C\CCCCCCCC(=O)OC(COC(=O)CCCCCCCCC)CO[C@@H]1O[C@H](CO)[C@H](O)[C@H](O)[C@H]1O` (stereo partly drawn): the MIC is more than 128 µg/mL.

On to `CC/C=C\C/C=C\C/C=C\CCCCCCCC(=O)OC(COC(=O)CCCCCCCCC)CO[C@@H]1O[C@H](CO)[C@@H](O)[C@H](O)[C@H]1O` (stereo partly drawn), for which the MIC was more than 128 µg/mL.

Another test concerns Bacillus subtilis. In words: Antibacterial activity against Bacillus subtilis ATCC 6633. Type of test: functional. The note with it: Bacillus subtilis, ATCC 6633; read-out: MIC.
In the case of `CC/C=C\C/C=C\C/C=C\CCCCCCCC(=O)OC(COC(=O)CCCCCCCCC)CO[C@@H]1O[C@H](CO)[C@H](O)[C@H](O)[C@H]1O` (stereo partly drawn), the MIC was more than 128 µg/mL.

As for `CC/C=C\C/C=C\C/C=C\CCCCCCCC(=O)OC(COC(=O)CCCCCCCCC)CO[C@@H]1O[C@H](CO)[C@@H](O)[C@H](O)[C@H]1O` (stereo partly drawn), the MIC is more than 128 µg/mL.

Another test concerns Staphylococcus aureus. The test is described as follows: Antibacterial activity against Staphylococcus aureus SA52 isolate. It counts as functional.
Settings: not given
As to `CC/C=C\C/C=C\C/C=C\CCCCCCCC(=O)OC(COC(=O)CCCCCCCCC)CO[C@@H]1O[C@H](CO)[C@H](O)[C@H](O)[C@H]1O` (stereo partly drawn), the MIC is more than 128 µg/mL.

As for `CC/C=C\C/C=C\C/C=C\CCCCCCCC(=O)OC(COC(=O)CCCCCCCCC)CO[C@@H]1O[C@H](CO)[C@@H](O)[C@H](O)[C@H]1O` (stereo partly drawn), the MIC is more than 128 µg/mL.

In a further test the test system is Mycobacterium tuberculosis. In words: Antibacterial activity against Mycobacterium tuberculosis H160 by dilution method. Type of test: functional. The note with it: Mycobacterium tuberculosis, H160; read-out: MIC.
On to `CC/C=C\C/C=C\C/C=C\CCCCCCCC(=O)OC(COC(=O)CCCCCCCCC)CO[C@@H]1O[C@H](CO)[C@H](O)[C@H](O)[C@H]1O` (stereo partly drawn), for which the MIC was more than 128 µg/mL.

For `CC/C=C\C/C=C\C/C=C\CCCCCCCC(=O)OC(COC(=O)CCCCCCCCC)CO[C@@H]1O[C@H](CO)[C@@H](O)[C@H](O)[C@H]1O` (stereo partly drawn), the MIC is more than 128 µg/mL.

The next test concerns Escherichia coli. The test is described as follows: Antibacterial activity against Escherichia coli ATCC 25922. It counts as functional.
Settings: not given
For the molecule `CC/C=C\C/C=C\C/C=C\CCCCCCCC(=O)OC(COC(=O)CCCCCCCCC)CO[C@@H]1O[C@H](CO)[C@H](O)[C@H](O)[C@H]1O` (stereo partly drawn), the minimal inhibitory concentration (MIC) is more than 128 µg/mL.

On to `CC/C=C\C/C=C\C/C=C\CCCCCCCC(=O)OC(COC(=O)CCCCCCCCC)CO[C@@H]1O[C@H](CO)[C@@H](O)[C@H](O)[C@H]1O` (stereo partly drawn), for which the MIC was more than 128 µg/mL.

The subject of another test is Staphylococcus aureus. The test is described as follows: Antibacterial activity against Staphylococcus aureus SA85 isolate.
Settings: not given
Type of test: functional.
The molecule `CC/C=C\C/C=C\C/C=C\CCCCCCCC(=O)OC(COC(=O)CCCCCCCCC)CO[C@@H]1O[C@H](CO)[C@H](O)[C@H](O)[C@H]1O` (stereo partly drawn) gave an MIC of 64 µg/mL (≈ 95.7 µM).

In turn, `CC/C=C\C/C=C\C/C=C\CCCCCCCC(=O)OC(COC(=O)CCCCCCCCC)CO[C@@H]1O[C@H](CO)[C@@H](O)[C@H](O)[C@H]1O` (stereo partly drawn) had an MIC of 64 µg/mL (≈ 95.7 µM).
